{"source": "patent US20260242759A1", "about": "“GQ/11 Protein Peptidomimetics” (Vrije Universiteit Brussel, priority 2022, published 2026)", "key": {"[1]": {"biological_target": "T1, human ghrelin receptor (GHSR) (Homo sapiens, UniProt Q92847, C146S/C304S)", "T1 construct": "integrin α5 fragment (N); polyhistidine tag (C); made in house; host or cells: E. coli BL21(DE3)", "T1 sequence (Q92847 whole entry C146S/C304S, the tested form may be a part)": "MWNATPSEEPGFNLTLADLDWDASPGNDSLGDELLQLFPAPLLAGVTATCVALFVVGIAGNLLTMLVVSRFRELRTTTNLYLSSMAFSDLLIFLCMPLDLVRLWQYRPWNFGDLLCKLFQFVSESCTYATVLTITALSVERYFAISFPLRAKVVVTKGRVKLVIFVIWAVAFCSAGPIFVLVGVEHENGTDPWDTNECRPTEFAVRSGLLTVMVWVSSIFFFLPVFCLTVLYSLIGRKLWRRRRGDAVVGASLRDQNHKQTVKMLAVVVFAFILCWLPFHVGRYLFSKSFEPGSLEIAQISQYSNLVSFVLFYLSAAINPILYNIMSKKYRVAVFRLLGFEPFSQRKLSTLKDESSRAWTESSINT", "experiment": "Bimane fluorescence assay on purified ghrelin receptor in nanodiscs", "format": "biochemical", "conditions": "bimane labeled GHSR, in presence of JMV1843", "procedure,_shortened": "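E. coli-expressed human ghrelin receptor (cysmin mutant, N-terminal integrin α5 fragment, C-terminal His-tag) purified into lipid nanodiscs and labelled with monobromobimane at Cys255 (16 h, 4° C, dark). Labelled receptor (0.2 μM final) incubated 2 h at 20° C with or without JMV1843 (20 μM) and peptidomimetics at varying molar ratios, or Gαqβ1γ2 at 1:5 receptor:G protein; emission scanned 440–520 nm with excitation at 380 nm for λmax shift.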"}, "[2]": {"biological_target": "T2, ghrelin receptor (Homo sapiens, UniProt Q92847)", "T2 construct": "expressed in transfected cells; host or cells: HEK293 cells overexpressing the ghrelin receptor", "T2 sequence (Q92847 whole entry)": "as the sequence (Q92847 whole entry C146S/C304S, the tested form may be a part) above, with S146C, S304C counted along it", "experiment": "IP-One Gq assay", "format": "cell-based", "conditions": "peptidomimetic at 10 μM, varying MK0677; FIG. 8", "experimental": "IP-One assays were conducted by using a homogeneous time-resolved fluorescence resonance energy transfer (TRFRET) assay (cisbio, IP-One Gq kit). The assays were performed on 384-well plates, containing 5000 cells/well. The HEK293 cells, in stimulation buffer (1×), were incubated with 5 or 10 μM of peptides (in stimulation buffer) during 1 h at 37° C. […] Finally, the d2-labeled IP1 and anti-IP1-cryptate, diluted in lysis buffer, were added to each well and incubated at room temperature. After 2 h of incubation in the dark, the plates were analyzed using the PHERAstar microplate reader.\nThe IP-One Gq assay detects the accumulation of inositol monophosphate (IP1), a metabolite produced following phospholipase C activation.\nThe assays were performed on 384-well plates containing HEK293 cells that overexpress the ghrelin receptor. First, the Gq/11 peptidomimetics were incubated during 1 h to allow penetration in the cells. […] After 45 min of incubation, the cells were lysed and d2-labeled IP1 (acceptor, 665 nm) was exogenously added to compete with the native unlabeled IP1 for binding with the anti-IP1-Cryptate (donor, 620 nm). Fluorescence was measured and the fluorescence ratio (665 nm/620 nm) was determined."}}, "note": "Non-standard residues stand in square brackets, D forms with d. Residues, ends and D or L forms follow the SMILES beside them. Cha = N[C@@H](CC1CCCCC1)C(=O)O"}
{"compound": "CC[C@H](C)[C@H](NC(=O)[C@@H](NC(=O)[C@H](CC(=O)O)NC(=O)[C@H](CCCCN)NC(=O)[C@@H](NC(=O)[C@H](C)NC(=O)[C@H](C)NC(=O)[C@H](Cc1ccccc1)NC(=O)[C@H](CCCCN)NC(=O)[C@H](CCCCN)NC(=O)[C@H](CCCCN)NC(C)=O)C(C)C)[C@@H](C)O)C(=O)N[C@@H](CC(C)C)C(=O)N[C@@H](CCC(N)=O)C(=O)N[C@@H](CC(C)C)C(=O)N[C@@H](CC(N)=O)C(=O)N[C@@H](CC(C)C)C(=O)N[C@@H](CCCCN)C(=O)N[C@@H](CCC(=O)O)C(=O)N[C@@H](Cc1ccc(O)cc1)C(=O)N[C@@H](CC(N)=O)C(=O)N[C@@H](CC1CCCCC1)C(=O)N[C@H](C(=O)O)C(C)C", "note": "[SBL-GQ-04] (Ac-KKKFAAVKDTILQLNLKEYN[Cha]V-OH)", "values": [{"measurement": "conformational change in the receptor", "setting": "[1]", "value": "not able to induce a conformational change"}, {"measurement": "receptor activation / fluorescence ratio (665 nm/620 nm) vs absence of peptidomimetic", "setting": "[2]", "value": "Almost no difference in receptor activation"}]}
